Assay results taken from patent US5177240A, “o-Phosphono(alkyl)-N-sulfonyl-phenyl-alanine derivatives useful as intermediates for preparation of phosphono-hydroisoquinolines” (G. D. Searle & Co., priority 1990, dated 1993).

Key:
[1] = biological target: Quis (quisqualate) receptor; test: Quisqualate (QUIS) receptor binding assay ([3H]AMPA, synaptic plasma membranes); settings: 10 nM [3H]AMPA, 100 mM KSCN, pH 7.4, 0-4° C., 10 min; read-out: NMDA receptor binding Ki, Quis
Experimental: (§1) Synaptic plasma membranes (SPM) were prepared as previously described Monahan, J. B. and Michel, J., "Identification and Characterization of an N-methyl-D-aspartate-specific L-[^3 H]-glutamate Recognition Site in Synaptic Plasma Membranes, J. Neurochem., 48, 1699-1708 (1987)]. The SPM were stored at a concentration of 10-15 mg/ml in 0.32M sucrose, 0.5 mM EDTA, 1 mM MgSO4, 5 mM Tris/sulfate, pH 7.4, under liquid nitrogen. The identity and purity of the subcellular fractions were confirmed by both electron microscopy and marker enzymes. Protein concentrations were determined by using a modification of the method of Lowry [Ohnishi, S. T. and Barr, J. K., "A Simplified Method of Quantitating Proteins Using the Biuret and Phenol Reagents", Anal. Biochem., 86, 193-197 (1978)]. The SPM were treated identically for the [^3 H]AMPA (QUIS), [^3 H]kainate and sodium-dependent L-[^3 H]-glumatate binding assays. The SPM were thawed at room temperature, diluted twenty-fold with 50 mM Tris/acetate, pH 7.4, incubated at 37° C. for 30 minutes, and centrifuged at 100,000 g for 15 minutes. The dilution, incubation and centrifugation were repeated a total of three times. Prior to use in the NMDA-specific L-[^3 H]-glutamate binding assay, the SPM were thawed, diluted twenty fold with 50 mM Tris/acetate (pH 7.4 containing 0.04% (v/v) Triton X-100), incubated for 30 minutes at 37° C. and centrifuged as described above. The Triton X-100 treated membranes were washed with 50 mM Tris/acetate (pH 7.4) and centrifuged at 100,000 g for 15 minutes a total of four times. The basic procedure for the receptor subclass binding assays was similar. […] Beckman MP scintillation cocktail containing 7 mL/L acetic acid was then added and the samples counted on a Beckman LS 5800 or 3801 liquid scintillation counter with automatic corrections for quenching and counting efficiency. […] Radioligand binding to the synaptic plasma membranes was analyzed using Scatchard and Hill transformations and the Ki values of the compounds determined using logit-log transformations. […]

NMDA receptor = NMDA receptor binding assay (NMDA-specific L-[3H]-glutamate binding, synaptic plasma membranes); settings: 12.5 nM L-[3H]-glutamate, pH 7.4, 0-4° C., 10 min
Experimental: Synaptic plasma membranes (SPM) were prepared as previously described Monahan, J. B. and Michel, J., "Identification and Characterization of an N-methyl-D-aspartate-specific L-[^3 H]-glutamate Recognition Site in Synaptic Plasma Membranes, J. Neurochem., 48, 1699-1708 (1987)]. The SPM were stored at a concentration of 10-15 mg/ml in 0.32M sucrose, 0.5 mM EDTA, 1 mM MgSO4, 5 mM Tris/sulfate, pH 7.4, under liquid nitrogen. The identity and purity of the subcellular fractions were confirmed by both electron microscopy and marker enzymes. Protein concentrations were determined by using a modification of the method of Lowry [Ohnishi, S. T. and Barr, J. K., "A Simplified Method of Quantitating Proteins Using the Biuret and Phenol Reagents", Anal. Biochem., 86, 193-197 (1978)]. The SPM were treated identically for the [^3 H]AMPA (QUIS), [^3 H]kainate and sodium-dependent L-[^3 H]-glumatate binding assays. The SPM were thawed at room temperature, diluted twenty-fold with 50 mM Tris/acetate, pH 7.4, incubated at 37° C. for 30 minutes, and centrifuged at 100,000 g for 15 minutes. The dilution, incubation and centrifugation were repeated a total of three times. Prior to use in the NMDA-specific L-[^3 H]-glutamate binding assay, the SPM were thawed, diluted twenty fold with 50 mM Tris/acetate (pH 7.4 containing 0.04% (v/v) Triton X-100), incubated for 30 minutes at 37° C. and centrifuged as described above. The Triton X-100 treated membranes were washed with 50 mM Tris/acetate (pH 7.4) and centrifuged at 100,000 g for 15 minutes a total of four times. The basic procedure for the receptor subclass binding assays was similar. This general method involved adding the radioligand (12.5 nM L-[^3 H]-glutamate; 0.5 nM [^3 H]kainate or 10nM [^3 H]AMPA) to the appropriate concentration of the test compound and initiating the assay by the addition of ice cold synaptic plasma membranes (0.2-0.45 mg). The binding assays were performed in 1.5 mL centrifuge tubes with the total volume adjusted to 1.0 mL. Additions of test compounds were made in 50 mM Tris/acetate (pH 7.4) and incubations were carried out at 0°-4° C. The incubation time for each of the NMDA and the AMPA binding assays was 10 minutes, for the kainate binding assay 60 minutes and for the sodium-dependent glutamate binding assay 15 minutes. The AMPA binding assay contained 100 mM KSCN and the sodium-dependent glutamate binding assay contained 150 mM sodium acetate in addition to the previously described reagents. To terminate the incubation, the samples were centrifuged for 15 minutes at 12,000 g and 4° C. in a Beckman Microfuge 12. The supernatant was aspirated and the pelleted membranes dissolved in Beckman BTS-450 tissue solubilizer for a minimum of 6 hours at room temperature. Beckman MP scintillation cocktail containing 7 mL/L acetic acid was then added and the samples counted on a Beckman LS 5800 or 3801 liquid scintillation counter with automatic corrections for quenching and counting efficiency. Nonspecific binding was defined as the residual binding in the presence of either excess L-glutamate (0.1-0.4 mM), kainate (0.01 mM), or NMDA (0.5 mM), and was 15-25% of the total binding in the NMDA binding assay, 19-27% in the AMPA binding assay, 20-30% in the kainate binding assay and 10-15% in the sodium-dependent binding assay. Radioligand binding to the synaptic plasma membranes was analyzed using Scatchard and Hill transformations and the Ki values of the compounds determined using logit-log transformations. Calculations and regression analysis were performed using templates developed for Lotus 1, 2, 3 as previously described [Pullan, L. M. "Automated Radioligand Receptor Binding Analysis with Templates for Lotus", Computer Appln. Biosci., 3 131 (1987)]. Binding results are reported in Table II for example compounds of the invention. Included in Table II are binding data for D,L-AP7[D,L-2-amino-7-phosphonoheptanoic acid].

[3H]glycine binding = Glycine Binding Assay ([3H]glycine, synaptic plasma membranes from rat forebrain); settings: 10 nM [3H]glycine, pH 7.4
Experimental: Synaptic plasma membranes (SPM) were prepared from rat forebrain and stored as previously described [J. B. Monahan and J. Michel, J. Neurochem., 48, 1699-1708 (1987)]. Frozen membranes were thawed and diluted 1:20 with 0.04% Triton X-100 in 50 mM Tris/acetate (pH 7.4). Following incubation at 37° C. for 30 min., the SPM were collected by centrifugation at 95,000×g for 15 min. The pellet was resuspended in 50 mM Tris/acetate (pH 7.4, Triton-free) and hand-homogenized five times. The membranes were again centrifuged as above. The pellet was washed two additional times with 50 mM Tris/acetate (without homogenization) and centrifuged. The final pellet was resuspended with homogenization in 50 mM Tris/acetate. In the general receptor binding assay procedure, 10 nM [^3 H]glycine was added to the appropriate concentration of the test compounds and the assay initiated by the addition of 0.2-0.4 mg of ice cold SPM. […] Beckman MP scintillation cocktail (5 ml) containing 7 ml/liter acetic acid was then added and the samples counted on a Beckman LS 5800 liquid scintillation counter with automatic corrections for quenching and counting efficiency. […] The binding of [^3 H]glycine to the SPM was analyzed using Scatchard and Hill transformations and the Ki for other compounds was determined using logit-log analysis. […]

[2] = tested on: TCP (1-[1-(2-thienyl)-cyclohexyl]piperidine) binding; test: TCP Modulation Assay ([3H]TCP binding, rat brain synaptic membranes); settings: 2 nM tritiated TCP, 0.05 mM L-glutamate, pH 7.4, 25° C., 60 min
Experimental: The effect on the TCP (1-[1-(2-thienyl)-cyclohexyl]piperidine) binding was measured in rat brain synaptic membranes (SPM) prepared as previously described [J. B. Monahan & J. Michel; J. Neurochem. 48:1699-1708 (1987)]. Prior to their use in the binding assay, frozen SPM were thawed, diluted twenty fold with 50 mM Tris/acetate (pH 7.4 containing 0.04% (v/v) Triton X-100), incubated for 30 min. at 37° C. and centrifuged at 95,000×g for 15 min. The Triton X-100 treated SPM were washed with 5 mM Tris/HCl, pH 7.4 and centrifuged a total of six times. The compound of Example II was incubated at different concentrations with SPM (0.2-0.4 mg protein) and 2 nM tritiated TCP, in a total volume of 0.5 ml of 5 mM Tris/HCl buffer pH 7.4 at 25° C. for 60 min. The samples were filtered through glass fiber filters (Schleicher & Schuell #32) which have been pretreated with 0.05% (v/v) polyethylenimine, washed 4 times with 2 ml of ice-cold 5 mM Tris/HCl buffer, and then counted on a Beckman LS 5800 liquid scintillation counter with automatic corrections for quenching and counting efficiency. Inhibition of TCP binding was measured as a decrease in the binding in the presence of 0.05 mM L-glutamate. Non-specific binding was defined as the residual binding in the presence of 60 […].

KA (kainate) receptor = test: Kainate (KA) receptor binding assay ([3H]kainate, synaptic plasma membranes); settings: 0.5 nM [3H]kainate, pH 7.4, 0-4° C., 60 min
Experimental: as §1, with “assays.” for “assays. The SPM were thawed at room temperature, diluted twenty-fold with 50 mM Tris/acetate, pH 7.4, incubated at 37° C. for 30 minutes, and centrifuged at 100,000 g for 15 minutes. The dilution, incubation and centrifugation were repeated a total of three times. Prior to use in the NMDA-specific L-[^3 H]-glutamate binding assay, the SPM were thawed, diluted twenty fold with 50 mM Tris/acetate (pH 7.4 containing 0.04% (v/v) Triton X-100), incubated for 30 minutes at 37° C. and centrifuged as described above. The Triton X-100 treated membranes were washed with 50 mM Tris/acetate (pH 7.4) and centrifuged at 100,000 g for 15 minutes a total of four times. The basic procedure for the receptor subclass binding assays was similar.”

[3H]MK-801 receptor = MK-801 Modulation Assay ([3H]MK-801 binding, synaptic plasma membranes from rat forebrain); settings: 2.0 nM [3H]MK-801, pH 7.4, 120 min, 25° C.; decrease in specific basal binding; read-out: IC50, inhibition of [3H]MK-801 binding
Experimental: [^3 H]MK-801 binding was performed using Triton X-100 washed synaptic plasma membranes (SPM) prepared from rat forebrain (30-45 day old, male Sprague-Dawley; Sasco, St. Charles, MO) as described previously [J. W. Thomas, W. F. Hood, J. B. Monahan, P. C. Contreras and T. L. O'Donohue, Brain Res., 442, 396-398 (1988)]. The assay was initiated by the addition of SPM (0.20-0.30 mg) to an incubation containing 2.0 nM [^3 H]MK-801 (15 Ci/mmole; New England Nuclear, Boston, MA) and various concentrations of the appropriate test compound in a total volume of 0.5 ml (all additions were made in 50mM Tris/acetate buffer, pH 7.4) and continued for 120 min at 25° C. The samples were then filtered through glass fiber filters (Schleicher and Schuell #32) which were pretreated with 0.05% (v/v) polyethylenimine. The filters were washed and the radioactivity quantitated by liquid scintillation spectrometry. Inhibition of [^3 H]MK-801 binding was measured as a decrease in specific basal binding (basal binding=2583 ±381 DPM) with nonspecific binding as the residual binding in the presence of 60 μM MK-801 (562 ±30 DPM).

Row | SMILES | Ki (NMDA receptor) [µM] | other results
1 | NC(CCCCCP(=O)(O)O)C(=O)O (racemic) [D,L-AP7, D,L-2-amino-7-phosphonoheptanoic acid] | 5.4 | Ki [1]: > 300 µM
2 | O=C(O)C1Cc2c(cccc2P(=O)(O)O)CN1 (single isomer, unassigned) [Ex. 14] | 3.1 | –
3 | O=C(O)C1Cc2c(cccc2P(=O)(O)O)CN1 (single isomer, unassigned; (+)) [Ex. 13, (+)-3-carboxy-5-phosphono-1,2,3,4-tetrahydroisoquinoline] | 0.9 | –
4 | N[C@H](CCCCCP(=O)(O)O)C(=O)O [D-AP7] | 4 | Ki [1]: > 300 µM
5 | Cl.O=C(O)C1Cc2c(cccc2P(=O)(O)O)CN1 (centres unmarked) [Ex. 2, 3-carboxy-5-phosphono-1,2,3,4-tetrahydroisoquinoline hydrochloride] | 1.6 | Ki [1]: > 300 µM; maximum inhibition of [3H]-glycine binding ([3H]glycine binding): approximately 40%; IC20 ([3H]glycine binding; calculated, based on maximum inhibition of approximately 40%): 1.9 µM; inhibition of TCP binding ([2]; at 5 μM): 64%; inhibition of TCP binding ([2]; at 50 μM): 91%; Kainate receptor binding Ki (KA (kainate) receptor): ~ 300 μM; IC50 ([3H]MK-801 receptor): 0.48 µM
6 | O=C(O)C1CC2=C(CC=CC2P(=O)(O)O)CN1 (centres unmarked) [Ex. 3, 3-carboxy-5-phosphono-1,2,3,4,5,8-hexahydroisoquinoline] | 3 | –
7 | O=C(O)C1CC2=C(CCCC2P(=O)(O)O)CN1 (centres unmarked) [Ex. 4, 3-carboxy-5-phosphono-1,2,3,4,5,6,7,8-octahydroisoquinoline] | 1.2 | –
8 | O=C(O)C1CC2C(CCCC2P(=O)(O)O)CN1 (centres unmarked) [Ex. 5] | 1.6 | IC50 ([3H]MK-801 receptor): 1.38 µM
9 | O=C(O)C1CC2C(CCCC2P(=O)(O)O)CN1 (centres unmarked) [Ex. 6] | 11.2 | –
10 | O=C(O)C1CC2C(CCCC2P(=O)(O)O)CN1 (centres unmarked) [Ex. 7] | 1.3 | –
11 | CCOC(=O)C1Cc2c(cccc2P(=O)(O)O)CN1 (centres unmarked) [Ex. 15, 5-phosphono-3-(ethoxycarbonyl)-1,2,3,4-tetrahydroisoquinoline] | > 100 | –
12 | Cc1ccc2c(c1P(=O)(O)O)CC(C(=O)O)NC2 (centres unmarked) [Ex. 16] | 5.9 | –
13 | O=C(O)C1Cc2c(cccc2CP(=O)(O)O)CN1 (centres unmarked) [Ex. 17, 3-carboxy-5-(phosphonomethyl)-1,2,3,4-tetrahydroisoquinoline] | 18 | –
